From patent US20120040974A1, “MIF MODULATORS” (YALE UNIVERSITY, priority 2008, published 2012)
Like-named read-outs stand apart in the source and are kept apart here.

Tests used:
[1] = target: T1, Human MIF tautomerase activity (HPP) (Homo sapiens, UniProt P14174); test: HPP tautomerase assay; type: biochemical; details: for Emax: read-out: HPP Max. Inhib.
T1 construct: made in house
T1 sequence (P14174 2-115 limits assumed): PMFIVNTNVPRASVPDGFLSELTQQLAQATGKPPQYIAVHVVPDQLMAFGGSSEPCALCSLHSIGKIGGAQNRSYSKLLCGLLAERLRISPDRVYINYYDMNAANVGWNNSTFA
Protocol: The HPP assay used was adapted to the microtiter plate format. […] Dilutions of the enzyme were prepared in 50 mM sodium phosphate buffer, 1 mM EDTA, pH 6.5. HPP was obtained from Aldrich. A stock solution of 60 mM HPP in ethanol is prepared and kept for maximally 4 hours on ice. The working solution (600 μM) of the substrate was prepared by diluting an aliquot of the stock solution with 50 mM sodium phosphate buffer, 1 mM EDTA, pH 6.5. […] Inhibitor and enzyme solutions were pipetted manually using an Eppendorf 12-channel pipette. Addition of substrate to start the reaction was performed with an Igel 96 pipetting station (OpalJena, Jena, Germany), which allows simultaneous addition of fluid to all 96 wells of the plates. Optical density (OD) was determined using a SPECTRAmax 250 reader (Molecular Devices). The reader was operated with the SoftmaxPro 2.6.1 software. Assay: Three wells of the microtiter plates were filled with buffer only, to allow for blanking. […] The last step was performed using the 96-channel pipetting device. The plate was then immediately (i.e. within a few seconds) transferred manually to the SPECTRAmax 250 reader and the optical density was determined (310 nm). From the data obtained, IC50 values were calculated using Excel® and XLfit® software.

[2] = target: T2, MIF-CD74 binding (biotinylated recombinant human MIF / immobilized CD74 ectodomain) (Homo sapiens, UniProt P14174); test: MIF-CD74 binding (capture) assay; details: for IC50: Table 1, benzooxazolones B, inhibition of MIF-CD74 binding; for Capture % Max. Inhib.: Table 3, benzothiazolones, capture assay
T2 sequence (P14174 2-115 limits assumed): T1 sequence (P14174 2-115 limits assumed)
Protocol: This allows measurement of the inhibition or enhancement of the binding of MIF to its receptor induced by an addend.
Incubate at 4° C. overnight. Wash the plate 4 times with 250 μl/well TTBS and add 100 μl/well of superblock (Pierce, Ill.). Incubate at 4° C. overnight. Remove the superblock and add mixture of compound and biotin-labeled recombinant human MIF incubated at 4° C. overnight. (Each compound was pre-incubated at various concentrations with 2 ng/μl 0.2 μM biotin-MIF for 2 hours at room temperature in the dark). After washing the plate 4 times with 250 μl/well TTBS, 60 μl/well of Strepavidin-AP (R&D Systems) was added and incubated for 1 hr at room temperature in the dark. Wells were then washed as before and 60 μl/well of PNPP (Sigma) was added, allowing the color to develop in the dark at room temperature and then read at OD405 nm.

[3] = test system: MIF-dependent ERK1/2 phosphorylation; test: MIF-dependent signal transduction in cells (ERK1/2 phosphorylation); type: cell-based; details: compared to isoxazoline-1
Protocol: Two additional assays were performed on compounds according to the present invention. In the first, MIF-dependent signal transduction in cells as evidenced by a reduction in ERK1/2 phosphorylation and its inhibitory action is compared to the known small molecule MIF antagonist, isoxazoline-1 following the assay reported in Leng L., Metz C, Fang Y, Xu J, Donnelly S, Baugh J, Delonery T, Chen Y, Mitchell R A, and Bucala R. 2003. MIF Signal Transduction Initiated by Binding to CD74. J Exp Med 197, 1467-1476.

ovarian cancer cell line = test: Growth inhibition of an ovarian cancer cell line; type: cell-based
Source text: KSP inhibitor ARRY-520 is used as a substitute for Paclitaxel in Type I ovarian cancer cells. J Transl Med. 7:63.

[4] = Table 1, MIF tautomerase activity, HPP substrate

Q: `Cc1ccc2oc(=O)n(Cc3ccccc3)c2c1` [Compound 1] was tested. Which IC50 [1, 4] did it give?
A: The IC50 was 0.5 µM.

Q: What does the source list for `COC(=O)CC1CC(c2ccc(O)cc2)=NO1` (centres unmarked) [ISO-1, reference compound]?
A: activity in the capture assay (MIF-CD74 binding), in words [2]: inactive; activity in the HPP tautomerase assay, in words [1]: inactive

Q: With `O=c1oc2ccc(F)cc2n1Cc1ccccc1` [Compound 8] as the compound, how does the IC50 [1, 4] read?
A: Its IC50 is 1 µM.

Q: For `Ic1cc(-c2ccccc2)ncn1` [Compound 4-IPP, 4-iodo-6-phenylpyrimidine, reference compound], which “activity in the capture assay (MIF-CD74 binding), in words” value [2] is on record?
A: The value was “inactive”.

Q: What about the IC50 [2] of the same compound?
A: Its IC50 is over 10000 µM.

Q: Which “inhibition of MIF-dependent signal transduction (reduction in ERK1/2 phosphorylation), in words” value [3] does the source give for `Cc1ccc2oc(=O)n(Cc3cccc(O)c3)c2c1` [Compound 098] here?
A: The value was “significant inhibitory action”.

Q: And the “inhibition of growth of an ovarian cancer cell line, in words” value (ovarian cancer cell line)?
A: The value was “significant inhibitory action”.

Q: Which results are given for `O=c1c2cc(C(F)(F)F)ccc2sn1-c1ccc(Cl)cc1` [Compound 35]?
A: Capture % Max. Inhib. [2]: 12%; IC50 ([1]; Table 3, benzothiazolones): 8.5 µM

Q: For `O=C(c1cc2ccccc2o1)c1cc2ccccc2o1` [Compound 20, bisbenzofuran-2-yl methanone], which IC50 ([1]; Table 2, other series) is on record?
A: The IC50 was 510 µM.

Q: For `O=c1c2ccc(F)cc2sn1-c1ccc(Cl)cc1` [Compound 25], which “activity in the capture assay (MIF-CD74 binding), in words” value [2] is on record?
A: The value was “agonist behavior”.

Q: For `O=c1c2ccc(Br)cc2sn1-c1ccc(Cl)cc1` [Compound 36], which “Capture % Max. Inhib.” value [2] is on record?
A: The value was 10%.

Q: What does the source list for `O=c1c2ccc(F)cc2sn1-c1cccc(CO)c1` [Compound 29]?
A: Capture % Max. Inhib. [2]: 8%; IC50 ([1]; Table 3, benzothiazolones): 4.8 µM

Q: How did the IC50 [2] turn out when `O=c1oc2cc(O)ccc2n1Cc1ccccc1` [Compound 14] was run?
A: The IC50 was over 1000 µM.

Q: How did the “Capture % Max. Inhib.” value [2] turn out when `COc1ccccc1-n1sc2ccc(Cl)cc2c1=O` [Compound 31] was run?
A: Its value is 7%.

Q: Which IC50 [2] does the source give for `COc1cccc(Cn2c(=O)oc3ccc(OC)cc32)c1` [Compound 3, 5-methoxy-3-(3-methoxy-benzyl)-3H-benzooxazol-2-one] here?
A: The IC50 was 200 µM.

Q: Which “Capture % Max. Inhib.” value [2] does the source give for `O=c1c2cc(F)ccc2sn1-c1cccc(O)c1` [Compound 32] here?
A: Its value is 13%.

Q: Which IC50 [2] does the source give for `COc1cccc(Cn2c(=O)oc3ccc(CO)cc32)c1` [Compound 4, 5-hydroxymethyl-3-(3-methoxy-benzyl)-3H-benzooxazol-2-one] here?
A: The IC50 was 500 µM.

Q: `O=c1c2cc([N+](=O)[O-])ccc2sn1-c1ccc(Cl)cc1` [Compound 34] was tested. Which “Capture % Max. Inhib.” value [2] did it give?
A: The value was 11%.

Q: With `COc1cccc(Cn2c(=O)oc3ccc(C)cc32)c1` [Compound 5] as the compound, how does the IC50 [2] read?
A: Its IC50 is 300 µM.

Q: For `CC(=O)OCc1cccc(-n2sc3cc(F)ccc3c2=O)c1` [Compound 33], which “Capture % Max. Inhib.” value [2] is on record?
A: Its value is 12%.

Q: With `N#Cc1ccc2c(=O)n(-c3ccc(Cl)cc3)sc2c1` [Compound 37] as the compound, how does the “Capture % Max. Inhib.” value [2] read?
A: Its value is 16%.

Q: How did the Emax ([1]; Table 1, maximal inhibition of HPP tautomerase activity) turn out when `COc1ccccc1Cn1c(=O)oc2ccc(F)cc21` [Compound 10] was run?
A: The Emax was 17%.

Q: How did the “Capture % Max. Inhib.” value [2] turn out when `O=c1c2cc(F)ccc2sn1-c1ccc(Cl)cc1` [Compound 30] was run?
A: The value was 7%.

Q: And the IC50 ([1]; Table 3, benzothiazolones)?
A: The IC50 was 2.8 µM.

Q: Which Emax ([1]; Table 2, other series) does the source give for `N#Cc1nc2ccccc2n1Cc1ccccc1` [Compound 18, 1-Benzyl-1H-benzoimidazole-2-carbonitrile] here?
A: Its Emax is 36%.

Q: Which Emax ([1]; Table 2, other series) does the source give for `c1ccc(Cn2c(-c3cscn3)nc3ccccc32)cc1` [Compound 17, 4-(1-benzyl-1H-benzo[d]imidazol-2-yl)thiazole] here?
A: The Emax was 40%.
